Reference: patent US9366676B2, “Fluorescent chemical compounds having high selectivity for double stranded DNA, and methods for their use” (LIFE TECHNOLOGIES CORPORATION, priority 2005, dated 2016)

Legend:
Jurkat cells = assay: Flow cytometry with induced apoptosis cells (apoptosis time course); format: cell-based, human
Experimental: Live Jurkat cells were split into 13 samples and each cell split was suspended in complete RMPI/10% FBS. Samples was treated with 10 μM Camptothecin in DMSO to induce apoptosis, or treated with DMSO alone to act as a control. Treatment and control time was 1, 2, 3, 4, 5, and 6 hours, and a time zero point. The cell suspensions were then incubated at 37° C./5% CO2 for a designated time. This type of experiment is sometimes called an “apoptosis time course”. Each split was washed once in complete RPMI media/10% Fetal Bovine Serum (FBS) and resuspended at 1×10^6 cells/mL in complete RPMI media with 10% FBS. […] A SYTOX® Blue stain vs compound (24) stain plot was made and a gate was made on compound (24) stain positive and SYTOX® Blue stain negative cells to gate out dead cells, and to ensure only live cells were analyzed. Fluorescence from the SYTOX® Blue stain was collected using 405 nm excitation laser with 450/50 bandpass and compound (24) stain fluorescence was collected at 585/42 bandpass using the 488 nm excitation laser as well as collected at the same 585/42 bandpass using the 532 nm excitation laser. […] The data was further analyzed using ModFit LT Flow Cytometry Modeling Software from Verity Software House, Inc. to look at ratio of G2/G1 and the CV of G1 phase and the percent sub-G0 population (apoptotic population).

[1] = test system: calf thymus double stranded DNA and ribosomal RNA; assay: Determination of DNA/RNA fluorescence ratios; format: binding
Experimental: The tested compound was dissolved as a stock solution in DMSO at a concentration of about 0.1-1.0 mg/mL. The exact concentration is not critical. Three tubes are prepared, each containing the same 1-20 uL of stock solution. The first tube contained 10 mM Tris, 1 mM EDTA (pH 7.5) buffer; the second tube contained buffer and 65 ug/mL calf thymus double stranded DNA; and the third tube contained buffer and 65 ug/mL ribosomal RNA. The tubes were incubated at room temperature for 10-15 minutes with protection from light.
In some cases, it was necessary to dilute the sample to keep the fluorescence signal on-scale. In these cases, all three samples were diluted to the same degree. The ratio of the fluorescence of the compound in the presence of DNA and RNA was determined.
The following compounds were selected as representative of the inventive class of compounds. The fluorescence values in the presence of DNA and RNA were determined as described in the previous Example. […] A ratio of 1 would indicate no selectivity. Excitation and emission values are in nm

double stranded DNA = details: cited from earlier work

CC[C@@]1(O)C(=O)OCc2c1cc1n(c2=O)Cc2cc3ccccc3nc2-1 [Camptothecin, reference compound]
induction time at which sub-G0 population begins to show (Jurkat cells; 10 μM Camptothecin in DMSO, live Jurkat, time course 0-6 hours): 3 h

COc1cccc(OC)c1-c1ccc2c(c1)sc(C=C1C=C(SCCN(C)C)N(Cc3ccccc3)c3ccccc31)[n+]2C [Compound 24]
staining of sub-G0 (apoptotic) population (Jurkat cells; 10 μM, 37° C., 30 minutes, live Jurkat treated with 10 μM Camptothecin, 488 nm or 532 nm excitation): stains live cells for identification of a sub-G0 population in apoptotic cells which increases with time of induction
DNA/RNA (fluorescence ratio) ([1]; 65 ug/mL calf thymus dsDNA vs 65 ug/mL ribosomal RNA, 10 mM Tris, 1 mM EDTA pH 7.5, ratio of 1 = no selectivity): 4.6
excitation maximum ([1]; Example 114): 520 nm
emission maximum ([1]; Example 114 (orange)): 569 nm
ex/em: emission ([1]; emission value, second number of ex/em cell): 570 nm
ex/em: excitation ([1]; excitation value, first number of ex/em cell): 520 nm

CN(C)CCCN(CCCN(C)C)c1cc(C=C2Sc3ccccc3N2C)c2ccccc2[n+]1-c1ccccc1 [PicoGreen]
fluorescence enhancement upon binding to double stranded DNA (double stranded DNA): greater than 1000 fold
